From US20230085307A1, “PYRIDAZINONE COMPOUND AND HERBICIDE” (NISSAN CHEMICAL CORPORATION, priority 2019, published 2023)

Assays:
green foxtail [1] = assay: Test Example 5: herbicidal effect by foliage application, plastic box (Table 20, symbol G); type: in vivo, green foxtail (Setaria viridis); conditions: foliage application, 320 g/ha, three weeks after application
In short: (§1)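 Plants were sown into sterilized diluvial soil under about 1.5 cm cover and kept in a greenhouse at 25° C. to 30° C. Fourteen days on, foliage received an even spray of the diluted emulsion. Herbicidal or crop effect was judged three weeks afterwards.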

redroot pigweed = assay: Test Example 5: herbicidal effect by foliage application, plastic box (Table 20, symbol N); type: in vivo, redroot pigweed (Amaranthus retroflexus); conditions: foliage application, 320 g/ha, three weeks after application
In short: as §1

oval-leafed pondweed = assay: Test Example 2: herbicidal activity, application during weed generation under submerged conditions (Table 17, symbol C); type: in vivo, oval-leafed pondweed (Monochoria vaginalis); conditions: AAH 320 g/ha; application during weed generation, submerged conditions
In short: (§2)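 Steps: fill Wagner pots with alluvial soil; add water to give 4 cm depth; sow the species mixed; grow under glass at 25–30° C.; at 1–2 leaves apply water-diluted emulsion formulation to the water surface at a fixed herbicide amount; score after 3 weeks.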

chickweed [2] = assay: Test Example 4: herbicidal effect by soil treatment (Table 19, symbol P); type: in vivo, common chickweed (Stellaria media); conditions: amount of applied herbicide 320 g/ha
In short: (§3)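 Pre-emergence style soil spray: seeds under ~1.5 cm sterilized diluvial soil received a uniform coat of emulsion diluted to the predetermined herbicide amount. Greenhouse 25–30° C; readout at week three on previously defined criteria.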

lambsquarters = assay: Test Example 4: herbicidal effect by soil treatment (Table 19, symbol O); type: in vivo, lambsquarters (Chenopodium album); conditions: amount of applied herbicide 320 g/ha
In short: as §3

barnyard grass = assay: Test Example 4: herbicidal effect by soil treatment (Table 19, symbol H); type: in vivo, barnyard grass (Echinochloa crus-galli); conditions: amount of applied herbicide 320 g/ha
In short: as §3

persian speedwell = assay: Test Example 4: herbicidal effect by soil treatment (Table 19, symbol R); type: in vivo, Persian speedwell (Veronica persica); conditions: amount of applied herbicide 320 g/ha
In short: as §3

velvetleaf [3] = assay: Test Example 5: herbicidal effect by foliage application, plastic box (Table 20, symbol M); type: in vivo, velvetleaf (Abutilon theophrasti); conditions: foliage application, 320 g/ha, three weeks after application
In short: as §1

velvetleaf [4] = assay: Test Example 4: herbicidal effect by soil treatment (Table 19, symbol M); type: in vivo, velvetleaf (Abutilon theophrasti); conditions: amount of applied herbicide 320 g/ha
In short: as §3

chickweed [5] = assay: Test Example 5: herbicidal effect by foliage application, plastic box (Table 20, symbol P); type: in vivo, common chickweed (Stellaria media); conditions: foliage application, 320 g/ha, three weeks after application
In short: as §1

windgrass = assay: Test Example 4: herbicidal effect by soil treatment (Table 19, symbol L); type: in vivo, windgrass (Apera spica-venti); conditions: amount of applied herbicide 320 g/ha
In short: as §3

Italian ryegrass = assay: Test Example 5: herbicidal effect by foliage application, plastic box (Table 20, symbol K); type: in vivo, Italian ryegrass (Lolium multiflorum); conditions: foliage application, 320 g/ha, three weeks after application
In short: as §1

late watergrass [6] = assay: Test Example 2: herbicidal activity, application during weed generation under submerged conditions (Table 17, symbol A); type: in vivo, late watergrass (Echinochloa oryzicola); conditions: AAH 320 g/ha; application during weed generation, submerged conditions
In short: as §2

rice flat sedge = assay: Test Example 3: herbicidal effect by foliage application, Wagner pot (Table 18, symbol E); type: in vivo, rice flat sedge (Cyperus iria); conditions: 320 g/ha
In short: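 Plants were sown in alluvial soil held under 0.1–0.5 cm standing water and grown 14 days in a greenhouse at 25–30 °C. An emulsifiable formulation, water-diluted to the set dose, was then sprayed onto the foliage, and effects were scored three weeks later using previously defined criteria.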

Japanese bulrush = assay: Test Example 2: herbicidal activity, application during weed generation under submerged conditions (Table 17, symbol B); type: in vivo, Japanese bulrush (Schoenoplectus juncoides); conditions: AAH 320 g/ha; application during weed generation, submerged conditions
In short: as §2

green foxtail [7] = assay: Test Example 4: herbicidal effect by soil treatment (Table 19, symbol G); type: in vivo, green foxtail (Setaria viridis); conditions: amount of applied herbicide 320 g/ha
In short: as §3

late watergrass [8] = assay: Test Example 1: herbicidal activity, application before weed generation under submerged conditions (Table 16, symbol A); type: in vivo, late watergrass (Echinochloa oryzicola); conditions: amount of applied herbicide 320 g/ha
In short: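 Emulsion formulation, water-diluted to set dose, was put onto the flooded surface (4 cm depth, alluvial soil) the same day weeds were sown and 2.5-leaf rice transplanted. After 3 weeks at 25-30 °C under glass, each species was rated 0 (≤5% kill) to 5 (≥90% kill).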

SMILES: COc1ccc2c(-c3c(O)c(Cl)nn(C)c3=O)c(-c3ccccc3OC)sc2c1 [Compound No. 3-088, 6-chloro-5-hydroxy-4-(6-methoxy-2-(2-methoxyphenyl)benzo[b]thiophen-3-yl)-2-methylpyridazin-3(2H)-one]
- G: green foxtail, herbicidal effect grade (green foxtail [1]): 5 (Herbicidal rate of 90% or more (almost completely withered))
- N: redroot pigweed, herbicidal effect grade (redroot pigweed): 4 (Herbicidal rate of 70% or more and less than 90%)
- herbicidal effect rating, C: oval-leafed pondweed (oval-leafed pondweed): 3 (Herbicidal rate of 40% or more and less than 70%)
- P: chickweed, herbicidal effect grade (chickweed [2]): 5 (Herbicidal rate of 90% or more (almost completely withered))
- O: lambsquarters, herbicidal effect grade (lambsquarters): 5 (Herbicidal rate of 90% or more (almost completely withered))
- H: barnyard grass, herbicidal effect grade (barnyard grass): 5 (Herbicidal rate of 90% or more (almost completely withered))
- R: persian speedwell, herbicidal effect grade (persian speedwell): 4 (Herbicidal rate of 70% or more and less than 90%)
- M: velvetleaf, herbicidal effect grade (velvetleaf [3]): 4 (Herbicidal rate of 70% or more and less than 90%)
- M: velvetleaf, herbicidal effect grade (velvetleaf [4]): 5 (Herbicidal rate of 90% or more (almost completely withered))
- P: chickweed, herbicidal effect grade (chickweed [5]): 5 (Herbicidal rate of 90% or more (almost completely withered))
- L: windgrass, herbicidal effect grade (windgrass): 0 (Herbicidal rate of 5% or less (almost no effect))
- K: Italian ryegrass, herbicidal effect grade (Italian ryegrass): 0 (Herbicidal rate of 5% or less (almost no effect))
- herbicidal effect rating, A: late watergrass (late watergrass [6]): 3 (Herbicidal rate of 40% or more and less than 70%)
- herbicidal effect on rice flat sedge (E) (rice flat sedge): 5 (Herbicidal rate of 90% or more (almost completely withered))
- herbicidal effect rating, B: Japanese bulrush (Japanese bulrush): 3 (Herbicidal rate of 40% or more and less than 70%)
- G: green foxtail, herbicidal effect grade (green foxtail [7]): 5 (Herbicidal rate of 90% or more (almost completely withered))
- Herbicidal effect, A: late watergrass (late watergrass [8]): 5 (Herbicidal rate of 90% or more (almost completely withered))

SMILES: COc1ccccc1-c1sc2cc(OCC(F)(F)F)ccc2c1-c1c(O)c(C)nn(C)c1=O [Compound No. 3-116, 5-hydroxy-4-(2-(2-methoxyphenyl)-6-(2,2,2-trifluoroethoxy)benzo[b]thiophen-3-yl)-2,6-di methylpyridazin-3 (2H)-one]
- G: green foxtail, herbicidal effect grade (green foxtail [1]): 5 (Herbicidal rate of 90% or more (almost completely withered))
- N: redroot pigweed, herbicidal effect grade (redroot pigweed): 5 (Herbicidal rate of 90% or more (almost completely withered))
- herbicidal effect rating, C: oval-leafed pondweed (oval-leafed pondweed): 4 (Herbicidal rate of 70% or more and less than 90%)
- P: chickweed, herbicidal effect grade (chickweed [2]): 4 (Herbicidal rate of 70% or more and less than 90%)
- O: lambsquarters, herbicidal effect grade (lambsquarters): 5 (Herbicidal rate of 90% or more (almost completely withered))
- H: barnyard grass, herbicidal effect grade (barnyard grass): 5 (Herbicidal rate of 90% or more (almost completely withered))
- R: persian speedwell, herbicidal effect grade (persian speedwell): 5 (Herbicidal rate of 90% or more (almost completely withered))
- M: velvetleaf, herbicidal effect grade (velvetleaf [3]): 5 (Herbicidal rate of 90% or more (almost completely withered))
- M: velvetleaf, herbicidal effect grade (velvetleaf [4]): 4 (Herbicidal rate of 70% or more and less than 90%)
- P: chickweed, herbicidal effect grade (chickweed [5]): 5 (Herbicidal rate of 90% or more (almost completely withered))
- L: windgrass, herbicidal effect grade (windgrass): 4 (Herbicidal rate of 70% or more and less than 90%)
- K: Italian ryegrass, herbicidal effect grade (Italian ryegrass): 5 (Herbicidal rate of 90% or more (almost completely withered))
- herbicidal effect rating, A: late watergrass (late watergrass [6]): 4 (Herbicidal rate of 70% or more and less than 90%)
- herbicidal effect on rice flat sedge (E) (rice flat sedge): 5 (Herbicidal rate of 90% or more (almost completely withered))
- herbicidal effect rating, B: Japanese bulrush (Japanese bulrush): 3 (Herbicidal rate of 40% or more and less than 70%)
- G: green foxtail, herbicidal effect grade (green foxtail [7]): 5 (Herbicidal rate of 90% or more (almost completely withered))
- Herbicidal effect, A: late watergrass (late watergrass [8]): 5 (Herbicidal rate of 90% or more (almost completely withered))
